Experimental data published in patent publication US20220281848A1, “PYRAZOLE-SUBSTITUTED PYRROLIDINONES AS HERBICIDES” (FMC Corporation, priority 2019, published 2022).

What was measured:
Assay type in all cases: in vivo
[1] = system: giant foxtail (Setaria faberi, SETFA); experiment: Test A pre-emergence, giant foxtail; conditions: after 13 d
Outline: (§1)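 Seeds were sown in standard soil in pots, kept one day in a glasshouse (24/16° C. day/night, 14 h light, 65% humidity), then sprayed with compound in acetone/water (50:50) containing 0.5% Tween 20 at 15.625, 62.5 or 250 g/ha. Plants grew on under the same conditions, watered twice daily, and damage was scored after 13 d (0 = none, 100 = total).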

[2] = system: ivy-leaved morning glory (Ipomoea hederacea, IPOHE); experiment: Test A pre-emergence, ivy-leaved morning glory; conditions: after 13 d
Outline: as §1

[3] = system: velvetleaf (Abutilon theophrasti, ABUTH); experiment: Test A pre-emergence, velvetleaf; conditions: after 13 d
Outline: as §1

[4] = system: redroot pigweed (Amaranthus retroflexus, AMARE); experiment: Test A post-emergence, redroot pigweed; conditions: after 13 d
Outline: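 Plants were grown 8 d in a glasshouse (24/16° C day/night, 14 h light, 65% humidity), then sprayed post-emergence at 15.625, 62.5 or 250 g/ha in acetone/water (50:50) with 0.5% Tween 20. Damage was scored visually after 13 d (0 = none, 100 = total).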

[5] = system: maize; experiment: Test D post-emergence, maize seed treated with a herbicide safener
Experimental: A formulation containing 50 g/L of the test chemical was prepared by dissolving the active ingredient in a mixture of organic solvents and emulsifier, details of which are provided in the table. This formulation was then mixed with a small, variable amount of acetone to aid dissolution, before addition of a 0.2% v/v aqueous solution of an adjuvant, as the aqueous diluent, to form an aqueous spray solution which contains a predetermined concentration of the active ingredient.
This aqueous spray solution was then sprayed onto plants including maize and wheat that had been seed treated with a herbicide safener, after one day's cultivation (for pre-emergence) or after about 12 days' cultivation (for post-emergence). The plants were grown from seeds sown in standard soil, placed in a glasshouse under controlled conditions (at 24/18° C. or 20/16° C., day/night; 16 h light; 65% humidity). After spray application the plants were then grown in a glasshouse under the same conditions and watered twice daily. After 15 d for post-emergence and 20 DAA for pre-emergence the test was evaluated (100=total damage to plant; 0=no damage to plant).

Compound | damage to plant (100=total damage; 0=no damage) SETFA ([1]; Pre-Emergence at 15.625 g/ha) | damage to plant (100=total damage; 0=no damage) SETFA ([1]; Pre-Emergence at 62.5 g/ha) | damage to plant (100=total damage; 0=no damage) SETFA ([1]; Pre-Emergence at 250 g/ha) | damage to plant (100=total damage; 0=no damage) IPOHE ([2]; Pre-Emergence at 15.625 g/ha) | damage to plant (100=total damage; 0=no damage) IPOHE ([2]; Pre-Emergence at 62.5 g/ha) | damage to plant (100=total damage; 0=no damage) IPOHE ([2]; Pre-Emergence at 250 g/ha) | damage to plant (100=total damage; 0=no damage) ABUTH ([3]; Pre-Emergence at 15.625 g/ha) | damage to plant (100=total damage; 0=no damage) ABUTH ([3]; Pre-Emergence at 62.5 g/ha) | damage to plant (100=total damage; 0=no damage) ABUTH ([3]; Pre-Emergence at 250 g/ha) | damage to plant (100=total damage; 0=no damage) AMARE ([4]; Post-Emergence at 15.625 g/ha) | damage to plant (100=total damage; 0=no damage) AMARE ([4]; Post-Emergence at 62.5 g/ha) | damage to plant (100=total damage; 0=no damage) AMARE ([4]; Post-Emergence at 250 g/ha) | damage to plant (100=total damage to plant; 0=no damage to plant), ZEAMX ([5]; rate 130, evaluated after 15 d) | damage to plant (100=total damage to plant; 0=no damage to plant), ZEAMX ([5]; rate 250, evaluated after 15 d) | damage to plant (100=total damage to plant; 0=no damage to plant), ZEAMX ([5]; rate 500, evaluated after 15 d)
CN1CC(c2cc(C(F)(F)F)n(C)n2)C(C(=O)Nc2cccc(F)c2F)C1=O (racemic) [Compound 3] | 90 | 90 | 90 | 0 | 0 | 30 | 0 | 0 | 10 | 0 | 10 | 20 | 0 | 0 | 10
CN1CC(c2cc(C(F)(F)F)n(C)n2)C(C(=O)Nc2ccc(F)cc2F)C1=O (racemic) [Compound 6] | 80 | 90 | 90 | 0 | 0 | 10 | 80 | 70 | 70 | 0 | 10 | 10 | 0 | 10 | 20
CCn1nc([C@H]2CN(C)C(=O)[C@@H]2C(=O)Nc2cccc(F)c2F)c2c(F)cccc21 [Compound 7] | 70 | 80 | 90 | 20 | 20 | 80 | 0 | 0 | 0 | 0 | 0 | 0 | 0 | 0 | 10
CN1CC(c2cc(C(F)(F)F)n(C)n2)C(C(=O)Nc2ccccc2F)C1=O (racemic) [Compound 9] | 70 | 90 | 90 | 50 | 0 | 0 | 0 | 0 | 0 | 0 | 0 | 0 |  |  | 
CCn1nc([C@H]2CN(C)C(=O)[C@@H]2C(=O)Nc2cccc(F)c2F)c2ccc(F)cc21 [Compound 4] | 80 | 90 | 90 | 0 | 10 | 70 | 0 | 0 | 0 | 0 | 20 | 20 |  |  | 
CCn1nc([C@H]2CN(C)C(=O)[C@@H]2C(=O)Nc2cccc(F)c2F)c2cc(F)ccc21 [Compound 8] | 80 | 90 | 90 | 20 | 20 | 20 | 0 | 0 | 0 | 0 | 0 | 0 | 0 | 0 | 0
CN1CC(c2cc(C(F)(F)F)n(C)n2)C(C(=O)Nc2cccc(F)n2)C1=O (racemic) [Compound 24] | 70 | 90 | 90 | 0 | 0 | 40 | 0 | 0 | 0 | 0 | 0 | 0 | 0 | 0 | 20
CCn1nc([C@@H]2CN(C)C(=O)[C@H]2C(=O)Nc2cccc(F)c2F)c2cccc(F)c21 [Compound 14] | 60 | 90 | 90 | 30 | 40 | 70 | 0 | 0 | 0 | 0 | 0 | 0 | 0 | 0 | 20
CN1CC(c2cc(C(F)(F)F)n(C)n2)C(C(=O)Nc2ccc(F)c(F)c2F)C1=O (racemic) [Compound 17] | 90 | 90 | 90 | 0 | 0 | 20 | 0 | 0 | 10 | 0 | 20 | 50 | 0 | 0 | 0
CN1CC(c2cc(Cl)n(C)n2)C(C(=O)Nc2ccc(F)c(F)c2F)C1=O (racemic) [Compound 31] | 40 | 80 | 80 | 0 | 0 | 10 | 0 | 0 | 0 | 0 | 10 | 20 |  |  | 
CN1CC(c2cnn(C)c2C(F)(F)F)C(C(=O)Nc2cccc(F)c2F)C1=O (racemic) [Compound 25] | 80 | 90 | 100 | 0 | 0 | 0 | 0 | 10 | 40 | 0 | 0 | 0 |  |  | 
